Measurements reported in publication PMC8697972, “New Auranofin Analogs with Antibacterial Properties against Burkholderia Clinical Isolates” (Antibiotics, 2021).

Tests used:
B. lata BCC6 = format: cell-based, Burkholderia lata; conditions: B. lata BCC6
B. multivorans ATCC17616 = format: cell-based, Burkholderia multivorans; conditions: B. multivorans ATCC17616
B. cenocepacia 140485 = format: cell-based, Burkholderia cenocepacia; conditions: B. cenocepacia 140485
B. cenocepacia K56-2 = format: cell-based, Burkholderia cenocepacia; conditions: B. cenocepacia K56-2; CAMHB, 18 h, 37 °C
B. dolosa CEP021 = format: cell-based, Burkholderia dolosa; conditions: B. dolosa CEP021
B. contaminans MF16 = format: cell-based, Burkholderia contaminans; conditions: B. contaminans MF16
[1] = tested on: B. contaminans FFH-2050MA; format: cell-based, Burkholderia contaminans; conditions: B. contaminans FFH-2050MA
B. contaminans FFH-4004 = format: cell-based, Burkholderia contaminans; conditions: B. contaminans FFH-4004
B. ubonensis LMG 20358 = format: cell-based, Burkholderia ubonensis; conditions: B. ubonensis LMG 20358
[2] = tested on: B. cenocepacia K56-2 persister cells; experiment: Time kill of persister cells generated with ciprofloxacin; format: cell-based, Burkholderia cenocepacia; conditions: in PBS, 3 h; MS-40S/MS-40 2× and 4× MIC, ciprofloxacin 5× MIC

| SMILES | MIC (B. lata BCC6) [µg/mL] | MIC (B. multivorans ATCC17616) [µg/mL] | MIC (B. cenocepacia 140485) [µg/mL] | MIC (B. cenocepacia K56-2) [µg/mL] | MIC (B. dolosa CEP021) [µg/mL] | MIC (B. contaminans MF16) [µg/mL] | MIC [1] [µg/mL] | MIC (B. contaminans FFH-4004) [µg/mL] | MIC (B. ubonensis LMG 20358) [µg/mL] | killing of ciprofloxacin-generated persister cells [2] |
| --- | --- | --- | --- | --- | --- | --- | --- | --- | --- | --- |
| CC[P+](CC)(CC)[Au-][S][C@@H]1O[C@H](CO)[C@@H](O)[C@H](O)[C@H]1O [WB-18-FI3683] | 128 | 128 | 64 | > 128 | > 128 | 128 | 128 | > 128 | > 128 | – |
| CC(=O)N[C@@H]1[C@@H](O)[C@H](O)[C@@H](CO)O[C@H]1[S][Au-][P+](C)(C)C [WB-19-HB2664] | 128 | 128 | 128 | > 128 | > 128 | 128 | 64 | 128 | 128 | – |
| CC(=O)OC[C@H]1O[C@@H]([S][Au-][P+](C)(C)C)[C@H](OC(C)=O)[C@@H](OC(C)=O)[C@@H]1OC(C)=O [WB-19-HG5899] | 128 | 128 | 128 | > 128 | > 128 | 128 | 64 | 128 | 128 | – |
| CP(C)C.CP(C)C.F[P-](F)(F)(F)(F)F.[Au+] [WB-19-HL4121a] | 32 | 64 | 32 | 128 | 128 | 32 | 32 | 64 | 128 | – |
| C[P+](C)(C)[Au-][S]CCCO [WB-19-HL4172] | 16 | 32 | 32 | 32 | 32 | 32 | 16 | 32 | 32 | – |
| C[P+](C)(C)[Au-][S]CCN [WB-19-HL4181] | 16 | 32 | 32 | 32 | 64 | 64 | 32 | 32 | 32 | – |
| O=C(O)c1cn(C2CC2)c2cc(N3CCNCC3)c(F)cc2c1=O [ciprofloxacin, reference compound] | – | – | – | – | – | – | – | – | – | not killed |
